The values below come from ChEMBL document CHEMBL5252586, “2-[(2-Amino-6-methylpyrimidin-4-yl)sulfanyl]-N-arylacetamides: Discovery of a new class of anti-tubercular agents and prospects for their further structural modification” (Bioorg Med Chem Lett, 2023).

≈ marks a conversion by molar mass, not a printed value. Calls of active or inactive are those of the source. The rule behind the calls is not given here.

One data set concerns Mycobacterium tuberculosis. Put plainly: Antimycobacterial activity against Mycobacterium tuberculosis H37Rv assessed as reduction in bacterial growth at 100 microg/ml. The class given is functional, organism-based. The conditions noted are these: dose 100.0 µg/ml.
`Cc1ccc(NC(=O)CSc2cc(C)nc(N)n2)cc1`: the outcome was inactive.

Test system in another data set: not listed separately
As to the kind of experiment: Solubility of compound. The class given is physicochemical.
Conditions: not given
Consider `Cc1cc(=O)[nH]c(N)n1`, for which the solubility entry is on record as “Soluble”.

The next data set deals with Mycobacterium tuberculosis. Put plainly: Antimycobacterial activity against Mycobacterium tuberculosis H37Rv assessed as reduction in bacterial growth.
Conditions: not given
Type of data set: functional.
In the case of `Cc1cc(SCC(=O)Nc2ccc(C(C)C)cc2)nc(N)n1`, the minimum inhibitory concentration (MIC) (commonly the lowest concentration found to suppress growth) was 1.5 µg/mL (≈ 4.74 µM).

As for `Cc1cc(SCC(=O)Nc2ccccc2)nc(N)n1`, the MIC was 100 µg/mL (≈ 364 µM).

`CC[C@@H](CO)NCCN[C@@H](CC)CO` [ETHAMBUTOL]: the minimum inhibitory concentration (MIC) stood at 5 µg/mL (≈ 24.5 µM).

With `CO[C@H]1/C=C/O[C@@]2(C)Oc3c(C)c(O)c4c(O)c(c(/C=N/N5CCN(C)CC5)c(O)c4c3C2=O)NC(=O)/C(C)=C\C=C\[C@H](C)[C@H](O)[C@@H](C)[C@@H](O)[C@@H](C)[C@H](OC(C)=O)[C@@H]1C` [RIFAMPIN], the MIC is 0.5 µg/mL (≈ 0.608 µM).

For `Cc1cc(SCC(=O)Nc2cc(C(F)(F)F)ccc2Cl)nc(N)n1`, the MIC was 25 µg/mL (≈ 66.3 µM).

In the case of `Cc1cc(SCC(=O)Nc2ccc(F)cc2)nc(N)n1`, the MIC was 100 µg/mL (≈ 342 µM).

As for `Cc1ccc(NC(=O)CSc2cc(C)nc(N)n2)c(C)c1`, the MIC was 100 µg/mL (≈ 331 µM).

Consider `Cc1cc(SCC(=O)Nc2cc(Cl)ccc2Cl)nc(N)n1`, for which the MIC was 1.5 µg/mL (≈ 4.37 µM).

As to `NNC(=O)c1ccncc1` [ISONIAZID], the minimal inhibitory concentration (MIC) is 0.1 µg/mL (≈ 0.729 µM).

In the case of `Cc1cc(SCC(=O)Nc2cccc(Cl)c2C)nc(N)n1`, the minimum inhibitory concentration (MIC) was found to be 100 µg/mL (≈ 310 µM).
